These results are taken from US6878531B1, “Method for multiple site-directed mutagenesis” (Medical College of Georgia Research Institute, priority 2003, dated 2005).

≈ marks a conversion by molar mass, not a printed value.

The test system of this assay is C.albicans cells. Briefly: Effective inhibitory concentrations for C.albicans cells grown in YPD medium. Conditions: C.albicans cells grown in YPD medium at 30° C. In kind it is cell-based, Candida albicans.

Take `CN[C@@H]1[C@@H](O)[C@@H](O[C@@H]2[C@@H](O)[C@H](O[C@H]3O[C@H]([C@@H](C)O)[C@@H](O)[C@H](O)[C@H]3N)[C@@H](N)C[C@H]2N)OC[C@]1(C)O` [G418]: the “IC50 (effective inhibitory concentration)” value was found to be 11 µg/mL (≈ 22.2 µM) and the “IC90 (effective inhibitory concentration)” value stood at 39 µg/mL (≈ 78.5 µM).
